The values below come from PubChem BioAssay AID1996.

The term kinetic solubility denotes the concentration staying in solution when a stock, usually in DMSO, is diluted into the medium.

Values after ≈ are worked out from the molar mass of the structure shown.

For the data set the following is noted: buffer; pH 7.4; 200.0 µM.
The compound `COc1ccccc1CNC(=O)c1ccc(C)s1` had a kinetic solubility of more than 39.2 µg/mL. The figure for `O=C(NCCc1c[nH]c2ccccc12)c1cc([N+](=O)[O-])cc([N+](=O)[O-])c1` is 15.2 µg/mL (≈ 42.9 µM); for `Nc1ccccc1SC1CC(=O)N(c2ccc3c(c2)OCO3)C1=O` (stereo unspecified) it is less than 0.4 µg/mL.

Turning to `COc1cc2c(C#N)c(N3CCCCC3)nc(N)c2c(N)n1`, the solubility (kinetic) was 39.8 µg/mL (≈ 133 µM). `COc1ccc(Cl)cc1C(=O)Nc1ccc(NC(=O)C(C)C)cc1` displayed a kinetic solubility of 0.5 µg/mL (≈ 1.44 µM). The compound `C/C(=N\O)c1oc2ccc3c(C)cc(=O)oc3c2c1C` showed a kinetic solubility of less than 0.6 µg/mL. Turning to `CC(Cl)C(=O)c1c[nH]c2ccccc12` (stereo unspecified), the solubility (kinetic) amounted to 21.4 µg/mL (≈ 103 µM).

For `CN1CCN(Cc2c(F)cccc2Cl)CC1`, the kinetic solubility is 24.2 µg/mL (≈ 99.7 µM).

The compound `O=C(O)C1(Cc2nc3ccccc3[nH]2)CCCC1` registered a solubility (kinetic) of 26.8 µg/mL (≈ 110 µM). `Cc1ncc([N+](=O)[O-])n1CCOc1nonc1N` displayed a solubility (kinetic) of more than 38.1 µg/mL.

`Fc1ccc(-c2c[nH]c(=S)n2Cc2ccccc2)cc1` yielded a kinetic solubility of 1.4 µg/mL (≈ 4.92 µM). Compound `CCc1noc(C)c1C(=O)OCC(=O)NCc1ccc(Cl)cc1` yielded a solubility (kinetic) of 8.4 µg/mL (≈ 24.9 µM). Compound `CCOc1ccccc1N1CCN(C(=O)NC2CCCCC2)CC1` showed a kinetic solubility of more than 49.7 µg/mL. The compound `CC(C)(C)c1ccc(CSc2nc(N)cc(=O)[nH]2)cc1` came in with a solubility (kinetic) of 6.4 µg/mL (≈ 22.1 µM).

In turn, `CCOc1ccccc1NC(=O)C1COc2ccccc2O1` (stereo unspecified) registered a kinetic solubility of less than 0.6 µg/mL. The figure for `CCc1noc(C)c1C(=O)OCC(=O)Nc1cccc(C)c1` is 20.4 µg/mL (≈ 67.5 µM); for `Cc1cc(C)nc(N2CCN(c3ccc(F)cc3)CC2)n1` it is 2.1 µg/mL (≈ 7.33 µM); for `COc1ccc(OC)c(NC(=O)NC2CCCc3ccccc32)c1` (stereo unspecified) it is 0.7 µg/mL (≈ 2.14 µM). `O=C(NCCOc1ccc(Cl)cc1)C1CCCCC1`: the solubility (kinetic) stood at 14.9 µg/mL (≈ 52.9 µM).

`O=C(Nc1ccc(Oc2cccc(C(F)(F)F)c2)nc1)c1cccs1` displayed a kinetic solubility of less than 0.4 µg/mL.

In the case of `O=C(c1cccs1)N1CCN(c2ccc(Cl)cc2)CC1`, the solubility (kinetic) was found to be 39.2 µg/mL (≈ 128 µM). As to `CC(C(=O)Nc1cccc(C#N)c1)N(C)CCOc1ccccc1` (stereo unspecified), the kinetic solubility was determined as 31.8 µg/mL (≈ 98.3 µM).

Turning to `CCN(CC)C(=O)Nc1ccc(Br)cc1`, the kinetic solubility was more than 40.7 µg/mL.

Take `O=C(NCCc1csc(-c2ccccc2)n1)c1ccco1`: the solubility (kinetic) worked out at 42.4 µg/mL (≈ 142 µM). Consider `O=c1[nH]c(=S)[nH]c2nc(-c3ccccc3)cnc12`, for which the kinetic solubility is more than 38.4 µg/mL. `COc1cccc(CSc2nccn2C)c1`: the solubility (kinetic) was more than 35.1 µg/mL.

The compound `CSCC[C@H](NC(=O)Nc1cccc(Br)c1)C(=O)O` returned a solubility (kinetic) of 39.4 µg/mL (≈ 113 µM). Compound `O=C(Nc1ccc(F)cc1)Nc1cccc(Br)c1` gave a kinetic solubility of 0.7 µg/mL (≈ 2.26 µM). The compound `O=C(CCNC(=O)c1ccco1)Nc1ccccc1OC(F)F` displayed a solubility (kinetic) of more than 48.6 µg/mL. For `Cc1cc(C)nc(NC(=O)c2ccc(Br)s2)n1`, the kinetic solubility was more than 46.8 µg/mL.

`CN(Cc1ccccc1)S(=O)(=O)c1ccc2c(c1)n(C)c(=O)c(=O)n2C` yielded a kinetic solubility of 1.4 µg/mL (≈ 3.75 µM). `Cc1ccc(OCCCCNC(C)c2ccccc2)c(C)c1` (stereo unspecified) gave a kinetic solubility of 32.2 µg/mL (≈ 108 µM). In turn, `Nc1ncnc(Oc2cccc3cccnc23)c1[N+](=O)[O-]` came in with a kinetic solubility of 33.8 µg/mL (≈ 119 µM).

Compound `NS(=O)(=O)c1ccc(CCNC(=O)CN2CCCCC2)cc1` yielded a kinetic solubility of 45.4 µg/mL (≈ 140 µM). `COc1ccc2cc(C(N)=O)c(=Nc3ccc(C)cc3)oc2c1` gave a solubility (kinetic) of less than 0.3 µg/mL. On to `Cc1cccc(Cc2cnc(NC(=O)C3=NCCN3)s2)c1`, for which the solubility (kinetic) amounted to 7 µg/mL (≈ 23.3 µM).

For the compound `Cc1cc([N+](=O)[O-])ccc1NC(=O)C(C)NC1CCCCC1` (stereo unspecified), the solubility (kinetic) is more than 45.8 µg/mL. `O=C(COC(=O)C1CCCO1)Nc1nc(-c2ccc(F)cc2)cs1` (stereo unspecified) came in with a kinetic solubility of more than 52.6 µg/mL.

`Cc1noc(C)c1COc1ccc(C(=O)NCc2cccs2)cc1` had a kinetic solubility of 16.5 µg/mL (≈ 48.2 µM).

Turning to `C/C(CC(=O)Nc1ccccn1)=N\NC(=O)c1cccc(C)c1`, the solubility (kinetic) is more than 46.6 µg/mL. As to `O=S(=O)(NCCc1ccccc1)c1ccc(Br)cc1`, the kinetic solubility came out at 3.5 µg/mL (≈ 10.3 µM). In turn, `O=C(CCc1ccccc1)Nc1ccc2c(c1)OCO2` displayed a solubility (kinetic) of 26.6 µg/mL (≈ 98.8 µM). The figure for `CCOP(=O)(Cc1ccc(C#N)o1)OCC` is more than 36.5 µg/mL; for `CCOc1ccc2nc(SCC(=O)NCC3CCCO3)sc2c1` (stereo unspecified) it is more than 52.9 µg/mL; for `CCc1ccc(NC(=O)CCc2ccc(C)o2)cc1` it is 5.3 µg/mL (≈ 20.6 µM). The compound `O=C(/C=C/c1ccccc1Cl)OCC(=O)c1ccc[nH]1` displayed a solubility (kinetic) of 6.3 µg/mL (≈ 21.7 µM). For the compound `C=CCSc1ncccc1C(=O)NCCc1ccccc1`, the solubility (kinetic) was 29.3 µg/mL (≈ 98.2 µM). `NC(=O)C1CCN(C(=O)Cc2ccc(-c3ccccc3)cc2)CC1` registered a solubility (kinetic) of more than 48.4 µg/mL.

`O=C(CCc1nc(-c2ccc(F)cc2)no1)Nc1cccc(C(=O)NC2CC2)c1` displayed a solubility (kinetic) of 9.7 µg/mL (≈ 24.6 µM). The compound `O=C(CC1SCCNC1=O)Nc1ccccc1Cl` (stereo unspecified) displayed a solubility (kinetic) of 38.6 µg/mL (≈ 136 µM). In turn, `Cc1cc(C(F)(F)F)nc(SCCN2CCOCC2)c1C#N` registered a solubility (kinetic) of 43.3 µg/mL (≈ 131 µM). As for `CS(=O)(=O)Nc1ccc(C(=O)Nc2ccc3ccccc3c2)cc1`, the solubility (kinetic) was less than 0.4 µg/mL. In the case of `C/C(=N\N1CCN(C)CC1)c1ccc(OC(F)F)cc1`, the kinetic solubility is more than 42.5 µg/mL. In turn, `COc1ccc(-c2csc(Nc3cccc(C)n3)n2)cc1C` displayed a solubility (kinetic) of 3.4 µg/mL (≈ 10.9 µM).

Compound `COc1ccccc1NC(=O)c1csc2c1CCC(C)C2` (stereo unspecified) registered a kinetic solubility of 1.2 µg/mL (≈ 3.98 µM).

Take `CCOC(=O)c1sc(-c2cccs2)nc1C`: the solubility (kinetic) is 2.6 µg/mL (≈ 10.3 µM). Consider `Nc1cc(C(F)(F)F)ccc1N1CCOCC1`, for which the solubility (kinetic) came to 36.7 µg/mL (≈ 149 µM). Consider `O=C(NCc1ccc(Cl)cc1Cl)Nc1ccccc1`, for which the kinetic solubility came out at 0.4 µg/mL (≈ 1.36 µM).

Take `Cn1c(O)c(C=Nc2ccc(Br)cc2)sc1=O`: the solubility (kinetic) was less than 0.3 µg/mL. The compound `O=C(Nc1ccccn1)c1ccc2c(c1)OCO2` returned a kinetic solubility of more than 36.3 µg/mL. The figure for `c1ccc2nc(-c3ccc(-n4ccnc4)cc3)ccc2c1` is 6.2 µg/mL (≈ 22.9 µM); for `N#Cc1c(N2CCNCC2)nc(-c2ccco2)c2c1CCCC2` it is more than 46.3 µg/mL.

For the compound `O=C(Nc1cccnc1)c1ccc(N2CCOCC2)c([N+](=O)[O-])c1`, the solubility (kinetic) was found to be 41.2 µg/mL (≈ 125 µM). `CCCn1c(=O)c2ccccc2n2c(=S)[nH]nc12` returned a kinetic solubility of more than 39 µg/mL.

The compound `CC(C)(C)Sc1ccc([N+](=O)[O-])cc1C(=O)Nc1ccncc1` displayed a solubility (kinetic) of more than 49.7 µg/mL. For `NC(=O)CC[C@H](NC(=O)c1ccc(F)cc1)C(=O)N1CCN(Cc2ccc3c(c2)OCO3)CC1`, the solubility (kinetic) is more than 70.6 µg/mL. Regarding `Cc1c(Cl)cccc1NC(=O)NCc1ccc(C)n1C`, the kinetic solubility was 5.3 µg/mL (≈ 18.2 µM). Turning to `COc1cc(OC)c(C(=O)NCC2CCCO2)cc1OC` (stereo unspecified), the kinetic solubility was more than 44.3 µg/mL. For the compound `O=C1NCC(COc2ccc([N+](=O)[O-])cc2)O1` (stereo unspecified), the solubility (kinetic) came to 34.1 µg/mL (≈ 143 µM). `COc1ccc(CNC(=O)c2cc3ccccc3o2)cc1OC` gave a solubility (kinetic) of more than 46.7 µg/mL. Turning to `CC1(c2ccccc2)NC(=O)N(CC(=O)Nc2ccccc2C(=O)NC2CC2)C1=O` (stereo unspecified), the kinetic solubility was more than 61 µg/mL. As to `Cc1noc(C(=O)N(C)c2ccccc2)c1Cl`, the solubility (kinetic) is 33.8 µg/mL (≈ 135 µM). `CCc1ccc(C(=O)COC(=O)CNC(=O)C2CCCCC2)cc1` gave a kinetic solubility of 18.1 µg/mL (≈ 54.6 µM). The same measure for `CCOCCc1c(O)nc(SCC)[nH]c1=O`: more than 36.6 µg/mL; for `Oc1ccccc1CNc1nccs1`: more than 30.9 µg/mL. `Cc1ccc(C(=O)Nc2ccccc2C(=O)N2CCCCCC2)cc1` came in with a solubility (kinetic) of more than 50.5 µg/mL.
